pIC50: −log10 of the molar value. One block for each molecule: values may come before it.
System: 186277-243-T-J2-PDC complex spheroids, viability
Assay: Anticancer human tumor 186277-243-T-J2-PDC patient-derived colon adenocarcinoma cell line growth inhibition [RAS]
Settings: for pIC50: curve of first compound; for viability, T/C: stronger effect = lower value
In short: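 Tumour cells grown as complex spheroids with HUVEC endothelial cells and mesenchymal stem cells, treated with RAS pathway inhibitor combinations. Each agent spans half-log steps from near clinical Cmax, or 10 microM where Cmax is unknown.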

[1] = second compound 0.000949 µM, first compound 0.0316 µM
[2] = second compound 0.000949 µM, first compound 0.1 µM
[3] = second compound 0.003 µM, first compound 0.0316 µM
[4] = second compound 0.003 µM, first compound 0.1 µM
[5] = second compound 0.00949 µM, first compound 0.0316 µM
[6] = second compound 0.00949 µM, first compound 0.1 µM
[7] = second compound 0.03 µM, first compound 0.0316 µM
[8] = second compound 0.03 µM, first compound 0.1 µM
[9] = second compound 0.0949 µM, first compound 0.0316 µM
[10] = second compound 0.0949 µM, first compound 0.1 µM
[11] = second compound 0.3 µM, first compound 0.0316 µM
[12] = second compound 0.3 µM, first compound 0.1 µM
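Also: spheroids exposed to compounds for 7 days before viability read.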

pIC50 (second compound 0.000949 µM): 6.08 | pIC50 (second compound 0.003 µM): 6.33 | pIC50 (second compound 0.00949 µM): 7.16 | pIC50 (second compound 0.03 µM): > 7.50 | pIC50 (second compound 0.0949 µM): > 7.50 | pIC50 (second compound 0.3 µM): > 7.50
Compound: CC(C)NCC(C(=O)N1CCN(c2ncnc3c2C(C)CC3O)CC1)c1ccc(Cl)cc1 (centres undefined) + CCn1c(-c2cc(N3CCN(C)CC3)cnc2C(C)OC)c2c3cc(ccc31)-c1csc(n1)CC(NC(=O)C1CC1C)C(=O)N1CCCC(N1)C(=O)OCC(C)(C)C2
viability, T/C [1]: 111% | viability, T/C [2]: 101% | viability, T/C (second compound 0.000949 µM, first compound 0.316 µM): 74.8% | viability, T/C (second compound 0.000949 µM, first compound 1 µM): 42.8% | viability, T/C (second compound 0.000949 µM, first compound 3.16 µM): 34.8% | viability, T/C (second compound 0.000949 µM, first compound 10 µM): 20.4% | viability, T/C [3]: 98.6% | viability, T/C [4]: 81.6% | viability, T/C (second compound 0.003 µM, first compound 0.316 µM): 58.8% | viability, T/C (second compound 0.003 µM, first compound 1 µM): 33.8% | viability, T/C (second compound 0.003 µM, first compound 3.16 µM): 16.1% | viability, T/C (second compound 0.003 µM, first compound 10 µM): 7.85% | viability, T/C [5]: 51.6% | viability, T/C [6]: 51% | viability, T/C (second compound 0.00949 µM, first compound 0.316 µM): 28% | viability, T/C (second compound 0.00949 µM, first compound 1 µM): 11.4% | viability, T/C (second compound 0.00949 µM, first compound 3.16 µM): 4.9% | viability, T/C (second compound 0.00949 µM, first compound 10 µM): 1.96% | viability, T/C [7]: 13.1% | viability, T/C [8]: 15.3% | viability, T/C (second compound 0.03 µM, first compound 0.316 µM): 7.36% | viability, T/C (second compound 0.03 µM, first compound 1 µM): 3.74% | viability, T/C (second compound 0.03 µM, first compound 3.16 µM): 1.65% | viability, T/C (second compound 0.03 µM, first compound 10 µM): 0.66% | viability, T/C [9]: 6.83% | viability, T/C [10]: 6.82% | viability, T/C (second compound 0.0949 µM, first compound 0.316 µM): 4.35% | viability, T/C (second compound 0.0949 µM, first compound 1 µM): 2.2% | viability, T/C (second compound 0.0949 µM, first compound 3.16 µM): 1.09% | viability, T/C (second compound 0.0949 µM, first compound 10 µM): 0.38% | viability, T/C [11]: 6.18% | viability, T/C [12]: 5.27% | viability, T/C (second compound 0.3 µM, first compound 0.316 µM): 3.57% | viability, T/C (second compound 0.3 µM, first compound 1 µM): 1.82% | viability, T/C (second compound 0.3 µM, first compound 3.16 µM): 0.88% | viability, T/C (second compound 0.3 µM, first compound 10 µM): 0.37%

pIC50 (second compound 0.000949 µM): 7.33 | pIC50 (second compound 0.003 µM): 7.56 | pIC50 (second compound 0.00949 µM): > 9.50 | pIC50 (second compound 0.03 µM): > 9.50 | pIC50 (second compound 0.0949 µM): > 9.50 | pIC50 (second compound 0.3 µM): > 9.50
Compound: CC(C)n1nc(-c2ccc3oc(N)nc3c2)c2c(N)ncnc21 + CCn1c(-c2cc(N3CCN(C)CC3)cnc2C(C)OC)c2c3cc(ccc31)-c1csc(n1)CC(NC(=O)C1CC1C)C(=O)N1CCCC(N1)C(=O)OCC(C)(C)C2
viability, T/C (second compound 0.000949 µM, first compound 0.000316 µM): 104% | viability, T/C (second compound 0.000949 µM, first compound 0.001 µM): 109% | viability, T/C (second compound 0.000949 µM, first compound 0.00316 µM): 87.9% | viability, T/C (second compound 0.000949 µM, first compound 0.01 µM): 69.8% | viability, T/C [1]: 62.2% | viability, T/C [2]: 34.8% | viability, T/C (second compound 0.003 µM, first compound 0.000316 µM): 106% | viability, T/C (second compound 0.003 µM, first compound 0.001 µM): 104% | viability, T/C (second compound 0.003 µM, first compound 0.00316 µM): 88.3% | viability, T/C (second compound 0.003 µM, first compound 0.01 µM): 72.9% | viability, T/C [3]: 46.7% | viability, T/C [4]: 20.1% | viability, T/C (second compound 0.00949 µM, first compound 0.000316 µM): 49.4% | viability, T/C (second compound 0.00949 µM, first compound 0.001 µM): 47.4% | viability, T/C (second compound 0.00949 µM, first compound 0.00316 µM): 37.7% | viability, T/C (second compound 0.00949 µM, first compound 0.01 µM): 30.8% | viability, T/C [5]: 12.7% | viability, T/C [6]: 5.22% | viability, T/C (second compound 0.03 µM, first compound 0.000316 µM): 14.8% | viability, T/C (second compound 0.03 µM, first compound 0.001 µM): 12.5% | viability, T/C (second compound 0.03 µM, first compound 0.00316 µM): 9.71% | viability, T/C (second compound 0.03 µM, first compound 0.01 µM): 6.52% | viability, T/C [7]: 4.01% | viability, T/C [8]: 2.6% | viability, T/C (second compound 0.0949 µM, first compound 0.000316 µM): 7.46% | viability, T/C (second compound 0.0949 µM, first compound 0.001 µM): 6.37% | viability, T/C (second compound 0.0949 µM, first compound 0.00316 µM): 5.35% | viability, T/C (second compound 0.0949 µM, first compound 0.01 µM): 3.33% | viability, T/C [9]: 2.32% | viability, T/C [10]: 1.41% | viability, T/C (second compound 0.3 µM, first compound 0.000316 µM): 5.75% | viability, T/C (second compound 0.3 µM, first compound 0.001 µM): 5.69% | viability, T/C (second compound 0.3 µM, first compound 0.00316 µM): 4.23% | viability, T/C (second compound 0.3 µM, first compound 0.01 µM): 2.81% | viability, T/C [11]: 2.02% | viability, T/C [12]: 1.43%

From PubChem BioAssay AID2060908 (Molecular Pharmacology Branch, DTP, NCI, 2025)
